What was measured:
[1] = biological target: T1, G12C-mutant human KRAS (amino acid residues 1-188) (Homo sapiens, UniProt P01116, G12C); experiment: KRAS Binding Disruption Assay (AlphaScreen; biotinylated KRpep-2d analogue or RAF1-RBD), G12C; conditions: geometric mean, read-out: KRAS GMean IC50 (uM) MUTATION: G12C
T1 construct: G12D or G12C-mutant human KRAS (amino acid residues 1-188) with FLAG tag; made in house; host or cells: E. coli
Procedure, shortened: (§1)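 AlphaScreen readout: signal falls as compound displaces biotinylated KRpep-2d analogue or RAF1-RBD from mutant KRAS. Both partners at 5-20 nM, 1 h binding at 25° C, then 10 μg/mL Anti-Flag acceptor and streptavidin donor beads for 1 h. IC50 by nonlinear regression of % inhibition.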

[2] = biological target: T2, G12D-mutant human KRAS (amino acid residues 1-188) (Homo sapiens, UniProt P01116, G12D); experiment: KRAS Binding Disruption Assay (AlphaScreen; biotinylated KRpep-2d analogue or RAF1-RBD), G12D; conditions: KRAS G12D; geometric mean; read-out: KRAS GMean IC50 (uM) MUTATION: G12D
T2 construct: G12D or G12C-mutant human KRAS (amino acid residues 1-188) with FLAG tag; made in house; host or cells: E. coli
T2 sequence (P01116 1-188 isoform P01116-2 G12D): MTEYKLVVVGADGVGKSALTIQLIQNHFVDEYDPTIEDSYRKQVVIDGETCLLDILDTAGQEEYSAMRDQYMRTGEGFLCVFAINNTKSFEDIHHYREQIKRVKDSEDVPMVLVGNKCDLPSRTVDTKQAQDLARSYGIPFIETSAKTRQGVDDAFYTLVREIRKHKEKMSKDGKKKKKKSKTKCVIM
Procedure, shortened: as §1

T1 sequence (P01116 1-188 isoform P01116-2 G12C): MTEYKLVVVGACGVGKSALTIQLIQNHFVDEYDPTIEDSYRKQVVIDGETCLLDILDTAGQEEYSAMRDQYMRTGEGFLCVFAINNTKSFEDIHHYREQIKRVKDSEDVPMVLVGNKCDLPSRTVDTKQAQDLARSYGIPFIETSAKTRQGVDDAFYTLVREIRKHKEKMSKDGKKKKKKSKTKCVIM

Row | Structure (SMILES) | IC50 [1] [µM] | IC50 [2] [µM]
1 | NC(=O)COc1nc(N2C[C@H]3CC[C@@H](C2)N3)c2ccc(-c3cc(O)cc4ccccc34)c(F)c2n1 [P-0732, 2-((4-((1R,5S)-3,8-diazabicyclo[3.2.1]octan-3-yl)-8-fluoro-7-(3-hydroxynaphthalen-1-yl)quinazolin-2-yl)oxy)acetamide] | 10 to 100 | 0.0001 to 10
2 | CNC(=O)COc1nc(N2C[C@H]3CC[C@@H](C2)N3)c2ccc(-c3cc(O)cc4ccccc34)c(F)c2n1 [P-0733, 2-((4-((1R,5S)-3,8-diazabicyclo[3.2.1]octan-3-yl)-8-fluoro-7-(3-hydroxynaphthalen-1-yl)quinazolin-2-yl)oxy)-N-methylacetamide] | 10 to 100 | 0.0001 to 10
3 | Oc1cc(-c2ccc3c(N4C[C@H]5CC[C@@H](C4)N5)nc(OCC4(O)CC4)nc3c2F)c2ccccc2c1 [P-0734, 4-(4-((1R,5S)-3,8-diazabicyclo[3.2.1]octan-3-yl)-8-fluoro-2-((1-hydroxycyclopropyl)methoxy)quinazo-lin-7-yl)naphthalen-2-ol] | 10 to 100 | 0.0001 to 10
4 | CC(C)(COc1nc(N2C[C@H]3CC[C@@H](C2)N3)c2ccc(-c3cc(O)cc4ccccc34)c(F)c2n1)NC(=O)OCc1ccccc1 [P-0735, benzyl (1-((4-((1R,5S)-3,8-diazabicyclo[3.2.1]octan-3-yl)-8-fluoro-7-(3-hydroxynaphthalen-1-yl)quinazolin-2-yl)oxy)-2-methylpropan-2-yl)carbamate] | 100 to 1000 | 0.0001 to 10
5 | CN(C)C(C)(C)COc1nc(N2C[C@H]3CC[C@@H](C2)N3)c2ccc(-c3cc(O)cc4ccccc34)c(F)c2n1 [P-0736, 4-(4-((1R,5S)-3,8-diazabicyclo[3.2.1]octan-3-yl)-2-(2-(dimethylamino)-2-methylpropoxy)-8-fluoroquinazolin-7-yl)naphthalen-2-ol] | 10 to 100 | 0.0001 to 10
6 | Fc1cc2c(N3C[C@H]4CC[C@@H](C3)N4)nc(OCC34CCCN3CCC4)nc2c(F)c1-c1c[nH]c2cccc(C(F)(F)F)c12 [P-0737, 4-((1R,5S)-3,8-diazabicyclo[3.2.1]octan-3-yl)-6,8-difluoro-2-((tetrahydro-1H-pyrrolizin-7a(5H)-yl)methoxy)-7-(4-(trifluoromethyl)-1H-indol-3-yl)quinazoline] | 0.0001 to 10 | 0.0001 to 10
7 | Oc1cc(-c2ccc3c(N4C[C@H]5CC[C@@H](C4)N5)nc(OCC4CCC(F)(F)C4)nc3c2F)c2ccccc2c1 (stereo partly drawn) [P-0738, 4-(4-((1R,5S)-3,8-diazabicyclo[3.2.1]octan-3-yl)-2-((3,3-difluorocyclopentyl)methoxy)-8-fluoroquinazolin-7-yl)naphthalen-2-ol] | 10 to 100 | 0.0001 to 10
8 | Oc1cc(-c2ccc3c(N4C[C@H]5CC[C@@H](C4)N5)nc(OCC4CCCC4(F)F)nc3c2F)c2ccccc2c1 (stereo partly drawn) [P-0739, 4-(4-((1R,5S)-3,8-diazabicyclo[3.2.1]octan-3-yl)-2-((2,2-difluorocyclopentyl)methoxy)-8-fluoroquinazolin-7-yl)naphthalen-2-ol] | 10 to 100 | 0.0001 to 10
9 | Oc1cc(-c2ccc3c(N4C[C@H]5CC[C@@H](C4)N5)nc(OCC4CC(F)(F)C4(F)F)nc3c2F)c2ccccc2c1 (stereo partly drawn) [P-0740, 4-(4-((1R,5S)-3,8-diazabicyclo[3.2.1]octan-3-yl)-8-fluoro-2-((2,2,3,3-tetrafluorocyclobutyl)methoxy)quinaz-olin-7-yl)naphthalen-2-ol] | 10 to 100 | 0.0001 to 10
10 | Oc1cc(-c2ccc3c(N4C[C@H]5CC[C@@H](C4)N5)nc(OCC4CC4(F)F)nc3c2F)c2ccccc2c1 (stereo partly drawn) [P-0741, 4-(4-((1R,5S)-3,8-diazabicyclo[3.2.1]octan-3-yl)-2-((2,2-difluorocyclopropyl)methoxy)-8-fluoroquinazolin-7-yl)naphthalen-2-ol] | 10 to 100 | 0.0001 to 10
11 | CN1C(=O)CCC1COc1nc(N2C[C@H]3CC[C@@H](C2)N3)c2ccc(-c3cc(O)cc4ccccc34)c(F)c2n1 (stereo partly drawn) [P-0742, 5-(((4-((1R,5S)-3,8-diazabicyclo[3.2.1]octan-3-yl)-8-fluoro-7-(3-hydroxynaphthalen-1-yl)quinazolin-2-yl)oxy)methyl)-1-methylpyrrolidin-2-one] | 10 to 100 | 0.0001 to 10
12 | O=C(O)CCOc1nc(N2C[C@H]3CC[C@@H](C2)N3)c2ccc(-c3cc(O)cc4ccccc34)c(F)c2n1 [P-0743, 3-((4-((1R,5S)-3,8-diazabicyclo[3.2.1]octan-3-yl)-8-fluoro-7-(3-hydroxynaphthalen-1-yl)quinazolin-2-yl)oxy)propanoic acid] | 10 to 100 | 0.0001 to 10
13 | CC(C)(C)OC(=O)COc1nc(N2C[C@H]3CC[C@@H](C2)N3)c2ccc(-c3cc(O)cc4ccccc34)c(F)c2n1 [P-0744, tert-butyl 2-((4-((1R,5S)-3,8-diazabicyclo[3.2.1]octan-3-yl)-8-fluoro-7-(3-hydroxynaphthalen-1-yl)quinazolin-2-yl)oxy)acetate] | 10 to 100 | 0.0001 to 10
14 | O=C(O)COc1nc(N2C[C@H]3CC[C@@H](C2)N3)c2ccc(-c3cc(O)cc4ccccc34)c(F)c2n1 [P-0745, 2-((4-((1R,5S)-3,8-diazabicyclo[3.2.1]octan-3-yl)-8-fluoro-7-(3-hydroxynaphthalen-1-yl)quinazolin-2-yl)oxy)acetic acid] | 10 to 100 | 0.0001 to 10
15 | Fc1cc2c(N3C[C@H]4CC[C@@H](C3)N4)nc(OCC34CCCN3CCC4)nc2c(F)c1-c1c[nH]c2c(F)ccc(F)c12 [P-0746, 4-((1R,5S)-3,8-diazabicyclo[3.2.1]octan-3-yl)-7-(4,7-difluoro-1H-indol-3-yl)-6,8-difluoro-2-((tetrahydro-1H-pyrrolizin-7a(5H)-yl)methoxy)quinazoline] | 10 to 100 | 0.0001 to 10
16 | Fc1cc(F)c2[nH]cc(-c3c(F)cc4c(N5C[C@H]6CC[C@@H](C5)N6)nc(OCC56CCCN5CCC6)nc4c3F)c2c1 [P-0747, 4-((1R,5S)-3,8-diazabicyclo[3.2.1]octan-3-yl)-7-(5,7-difluoro-1H-indol-3-yl)-6,8-difluoro-2-((tetrahydro-1H-pyrrolizin-7a(5H)-yl)methoxy)quinazoline] | 10 to 100 | 0.0001 to 10
17 | CC(F)(F)COc1nc(N2C[C@H]3CC[C@@H](C2)N3)c2ccc(-c3cc(O)cc4ccccc34)c(F)c2n1 [P-0748, 4-(4-((1R,5S)-3,8-diazabicyclo[3.2.1]octan-3-yl)-2-(2,2-difluoropropoxy)-8-fluoroquinazolin-7-yl)naphthalen-2-ol] | 10 to 100 | 0.0001 to 10
18 | Oc1cc(-c2ccc3c(N4C[C@H]5CC[C@@H](C4)N5)nc(OCC(F)F)nc3c2F)c2ccccc2c1 [P-0749, 4-(4-((1R,5S)-3,8-diazabicyclo[3.2.1]octan-3-yl)-2-(2,2-difluoroethoxy)-8-fluoroquinazolin-7-yl)naphthalen-2-ol] | 10 to 100 | 0.0001 to 10
19 | Oc1cc(-c2ccc3c(N4C[C@H]5CC[C@@H](C4)N5)nc(OCC4CCC4)nc3c2F)c2ccccc2c1 [P-0750, 4-(4-((1R,5S)-3,8-diazabicyclo[3.2.1]octan-3-yl)-2-(cyclobutylmethoxy)-8-fluoroquinazolin-7-yl)naphthalen-2-ol] | 10 to 100 | 0.0001 to 10
20 | N#CC1CC(COc2nc(N3C[C@H]4CC[C@@H](C3)N4)c3ccc(-c4cc(O)cc5ccccc45)c(F)c3n2)C1 (stereo partly drawn) [P-0751, 3-(((4-((1R,5S)-3,8-diazabicyclo[3.2.1]octan-3-yl)-8-fluoro-7-(3-hydroxynaphthalen-1-yl)quinazolin-2-yl)oxy)methyl)cyclobutane-1-carbonitrile] | 10 to 100 | 0.0001 to 10
21 | Oc1cc(-c2ccc3c(N4C[C@H]5CC[C@@H](C4)N5)nc(OCC4CCC(F)(F)CC4)nc3c2F)c2ccccc2c1 [P-0752, 4-(4-((1R,5S)-3,8-diazabicyclo[3.2.1]octan-3-yl)-2-((4,4-difluorocyclohexyl)methoxy)-8-fluoroquinazolin-7-yl)naphthalen-2-ol] | 10 to 100 | 0.0001 to 10
22 | CN(C)CCOc1nc(N2C[C@H]3CC[C@@H](C2)N3)c2ccc(-c3cc(O)cc4ccccc34)c(F)c2n1 [P-0753, 4-(4-((1R,5S)-3,8-diazabicyclo[3.2.1]octan-3-yl)-2-(2-(dimethylamino)ethoxy)-8-fluoroquinazolin-7-yl)naphthalen-2-ol] | 0.0001 to 10 | 0.0001 to 10
23 | CNCCc1nc(N2C[C@H]3CC[C@@H](C2)N3)c2ccc(-c3cc(O)cc4ccccc34)c(F)c2n1 [P-0754, 4-(4-((1R,5S)-3,8-diazabicyclo[3.2.1]octan-3-yl)-8-fluoro-2-(2-(methylamino)ethyl)quinazolin-7-yl)naphthalen-2-ol] | 10 to 100 | 0.0001 to 10
24 | CC(CCBr)Oc1nc(N2C[C@H]3CC[C@@H](C2)N3)c2ccc(-c3cc(O)cc4ccccc34)c(F)c2n1 (stereo partly drawn) [P-0755, 4-(4-((1R,5S)-3,8-diazabicyclo[3.2.1]octan-3-yl)-2-((4-bromobutan-2-yl)oxy)-8-fluoroquinazolin-7-yl)naphthalen-2-ol] | 10 to 100 | 0.0001 to 10
25 | CN1CCC[C@H]1COc1nc(N2C[C@H]3CC[C@@H](C2)N3)c2cc(F)c(-c3c[nH]c4ccc(Cl)nc34)c(F)c2n1 [P-0756, 4-((1R,5S)-3,8-diazabicyclo[3.2.1]octan-3-yl)-7-(5-chloro-1H-pyrrolo[3,2-b]pyridin-3-yl)-6,8-difluoro-2-(((S)-1-methylpyrrolidin-2-yl)methoxy)quinazoline] | 100 to 1000 | 0.0001 to 10
26 | CN1CCC[C@H]1COc1nc(N2C[C@H]3CC[C@@H](C2)N3)c2cc(F)c(-c3c[nH]c4ccc(C(F)(F)F)cc34)c(F)c2n1 [P-0757, 4-((1R,5S)-3,8-diazabicyclo[3.2.1]octan-3-yl)-6,8-difluoro-2-(((S)-1-methylpyrrolidin-2-yl)methoxy)-7-(5-(trifluoromethyl)-1H-indol-3-yl)quinazoline] | 100 to 1000 | 0.0001 to 10
